Reference: patent US20110306579A1, “METHODS OF NEUROPROTECTION USING NEUROPROTECTIVE STEROIDS AND A VITAMIN D” (EMORY UNIVERSITY, priority 2009, published 2011)
Structures can show the parent of a compound that is named as a salt.

Assays:
[1] = molecular target: T1, vitamin D binding protein (DBP) (Homo sapiens, UniProt P02774); conditions: cited from earlier work
T1 construct: host or cells: serum
T1 sequence (P02774 17-474): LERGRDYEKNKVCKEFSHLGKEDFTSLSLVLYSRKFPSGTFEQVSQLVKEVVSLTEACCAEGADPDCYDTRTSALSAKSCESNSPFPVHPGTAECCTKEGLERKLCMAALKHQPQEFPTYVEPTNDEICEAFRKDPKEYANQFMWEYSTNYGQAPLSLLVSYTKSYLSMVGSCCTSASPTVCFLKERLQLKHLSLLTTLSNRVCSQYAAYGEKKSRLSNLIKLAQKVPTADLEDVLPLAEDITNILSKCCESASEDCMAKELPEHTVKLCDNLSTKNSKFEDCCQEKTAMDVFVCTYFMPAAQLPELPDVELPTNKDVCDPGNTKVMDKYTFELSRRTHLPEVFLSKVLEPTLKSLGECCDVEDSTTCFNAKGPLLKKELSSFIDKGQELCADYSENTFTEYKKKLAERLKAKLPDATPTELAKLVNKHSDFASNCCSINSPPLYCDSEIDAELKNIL

[2] = test system: 20-month old Fischer 344 rats; assay: Cerebral edema analysis after cortical contusion brain injury; type: in vivo, rat; conditions: 4 mg/kg; for edema compared to subjects treated with vehicle: 24 hours post brain injury; for mean % difference edema: brain tissue 24 hours post brain injury, i.p. at 1 h, s.c. at 6 and 24 h
Protocol: The methodology used is described in VanLandingham et al., Neuropharmacology, 2006, 51, 1078-1085.
Sterile surgical procedures were used to prevent animal infection. Rats (20-month old Fischer 344 rats, which are the “human” equivalent of about 60 years old) were anesthetized and maintained on isoflurane and an equivalent amount of […] and O2 for 3 min prior to surgery. After brain contusion, O2 levels were doubled compared to […] and maintained through the reainder of the surgery procedure. A stereotaxic apparatus was used to stabilize the head in a horizontal position. Core body temperature was monitored and maintained at 37° C. using a Harvard homeothermic blanket (Harvard Apparatus, Holliston, Mass.). There was no direct measure used to deterct brain temperature. Blood oxygen and heart rate were maintained using a SurgiVet monitor (SurgiVet, Waukesha, Wis.) and maintained above 90% and 340 bpm respectively. A midline incision was made and the scalp retracted. A bilateral 6-mm craniotomy was performed with surgical drill centered at 3 mm rostral to bregma. The stainless steel impactor was positioned over the MFC at 3.0 mm A/P and 0.0 M/L. These coordinates represent the MFC as described by Paxinos and Watson (The Rat Brain in Stereotaxic Coordinates, Academic Press, San Diego, 1986). The cortical injury was induced using a pneumatically controlled device (Hoffman et al., J. Neurotrauma, 1994, 11, 417-431). Brain impact duration was 0.5 s. using a 5-mm impactor tip with a velocity set at 2.125 m/s and a cortical depth of 2 mm. Following the contusion, bleeding was halded and fascia and scalp were sutured shut. After surgery, animals were allowed to recover from anesthesia on a homeothermic heating blanket in a holding cage until awake. sham surgeries controlled for anesthesia and stress. All surgical procedures were the same, except that sham rates were not given a craniotomy or cortical injury. Previous studies using craniotomy as a control found no differences between shams with or without this procedure. (Goss et al., Pharmacol. Biochem. Behay. 2003, 76(2), 231-242).
These experimental solutions were then diluted 1:1 with sterile water for a final concentration of HBC of 22.5%.
All injections were done at the same time with brain harvesting at 24 h post-injury. Rats in each group were weightd prior to treatment to ensure proper dosage. The first injection at 1 h after surgery was given intraperitoneally to ensure rapid adsorption. All subsequent injections were made subcutaneously for gradual adsorption at 6 and 24 h. Injection times and neurosteroid doses were based on previous results of neurosteroid treatment (Roof et al., Twenty First Annual Meeting of the Society for Neuroscience, Miami Beach Fla., p. 191 and He et al., Exp. Neurol. 2004, 189, 404-412). The sterioids were dissolved in vehicle (22.5% 2-hydroxypropyl-b-cyclodextrin solution) at 4 mg/kg. The sham group received no treatment and injury control group received vehicle only.
At 24 h after traumatic brain injury flresh brains were extracted from the skull and the dorsal cerebrum was separated along the line of the lateral fissure. Four 3-mm coronal sections were cut rostral to caudal, placed in pre-weighed 1.5 mL tubes and re-weighed (wet weight). Tubes were then left uncapped and placed in a vacuum oven set at 60° C. with an atmospheric pressure of 0.3 for 48 h. Following tube recapping, the tissue samples were again weighed (dry weight). Cerebral edema (% water content) was determined as the difference in wet and dry weights divided by wet weight (Roof and Stein Restor. Neurol. Ncurosci., 1992, 4, 425-427). Edema measures are reflective of the difference inwater content between at the average of the two most rostral (injury region) segments and most caudal (occipital cortex) segments of the dorsal sections of the brain.

[3] = test system: 20-month-old male Fischer 344 rats; assay: Spontaneous locomotor activity (open field) after TBI; type: in vivo, rat; conditions: 72 hours after injury; normalized to sham
Description: The animals in this study were separated into two groups, vitamin D normal (D-normal) and vitamin D deficient (D-deficient). […] Animals in the D-deficient group were maintained on the diet for at least 21 days prior to surgery. […] For this same reason the null diet was not altered in any other way, and the rats assigned to the D-deficient group were maintained on it until they were killed for harvesting of brain tissue. Since vitamin D is activated by UVB light (280-315 nm wavelength), the overhead lights were modified to not produce radiation in this range.
Animals dehydrated due to blood loss were given 3 mL of lactated Ringer's solution subcutaneously within 6 hours of injury.
Animals were assigned to D-normal or D-deficicnt groups. […] The same assignment was followed for both 24-hour and 72-hour survival groups. […] All drug treatments were dissolved in vehicle, and injection volume was equally proportional to each animal's weight across all groups. The intact sham (SHAM) groups served to provide baseline data and therefore received no injury or injections.
In addition to molecular measures of inflammatory cytokines, the behavioral effects of the various treatments were examined. Since this study was limited to the short term effects on inflammation, only short-term Spontaneous Locomotor Activity was used.

[4] = test system: E18 rat primary cortical neurons; assay: Glutamate-induced excitotoxic cell death (LDH release and MTT reduction assays); type: cell-based
Description: Lactate dehydrogenase (LDH) release and 3-(4,5-dimethylthiazol-2-yl)-2,5-diphenyltetrazolium bromide (MTT) reduction assays were used to measure cell death. NeuroPureTM E18 primary rat cortical cells were commercially procured (Catalogue # N200200, Genlantis, San Diego, Calif., USA) as micro-surgically dissected regions from day 18 embryonic Sprague-Dawley rat brain. The tissues were processed for culturing according to manufacturer specifications. Briefly, enzymatic pre-treatment of the tissue was done prior to mechanical dissociation by incubating the tissues in sterile NeuroPapain enzyme solution at 30° C. for 30 minutes. Following incubation, the cells were centrifuged and transferred to fresh plating medium, where they were then dissociated into isolated neurons using a P-1000 pipettor with a sterile 1 ml plastic tip (0.8-1.0 mm diameter opening). The cells were again centrifuged and seeded in multi-well plates pre-coated with poly-D-lysine (0.15 ml/cm^2, 50 μg/ml) and maintained at 37° C. in a humidified 5% CO2 atmosphere. All experiments were performed after 9-10 days in culture. Twenty-four hours before glutamate exposure, cultures were pre-treated with both PROG (Cat. #P3972; Sigma Aldrich, St. Louis, Mo., USA) and VDH(Cat. #D1530; Sigma) separately or in combination with VDH at various concentrations. Stock solutions of PROG and VDH were prepared in dimethylsulfoxide (DMSO; Cat. #D2650; […] Glutamate was diluted in phosphate-buffered saline (PBS, pH 7.4). All reagents were filter sterilized before being added to cultures. At Day 11, cortical neurons in fresh media were separated into five treatment groups: (i) control; (ii) 24 hour treatment with 0.5 μM glutamate (Sribnick E A, et al., (2004) J Neurosci Res 76: 688-696); ([…]) with subsequent exposure to glutamate for 24 hours; (iv) 24 hour pre-treatment with VDH (1, 5, 10, 20, 40, 80, 100 nM) with subsequent exposure to glutamate for 24 hours; (v) 24 hour pre-treatment with different combinations of PROG and […]: 20 μM+VDH: 1, 5, 10, 20, 40, 80, 100 nM) with subsequent exposure to glutamate for 24 hours. Two widely accepted assays (LDH release and MTT reduction assay) for the measurement of cell viability were used. These assays are considered very reliable and reproducible with high predictive validity and are widely used in various pharmacological studies ([…], et al., (2002) Endocrinology 143: 205-212.). The LDH assay was performed as follows. […] LDH activity was measured using a Cytotoxicity Detection Kit (Roche Molecular Biochemicals, Indianapolis, Ind., USA) and quantitated by measuring absorbance at 490 nm. Data were normalized against the amount of LDH activity released from vehicle-treated control cultures receiving no glutamate. Neuronal death was also assessed by MTT [3-(4,5-dimethylthiazol-2-yl)-2,5-diphenyltetrazolium bromide] assay, which is based on the cleavage of the tetrazolium ring of the pale yellow MTT into dark blue formazan crystals by mitochondrial dehydrogenase enzyme in viable cells. These blue formazan crystals accumulate within the cells due to their impermeability to cell membrane, and are then solubilized by adding DMSO. The intensity of blue colored formazan solution is directly proportional to the number of surviving cells. Concentrations were determined by photometric analysis. Briefly, 10 μl of MTT were added per well and incubated at 37° C. for 4 hours until purple precipitate was visible. DMSO (50 μl) was added to solubilize the crystals and the absorbance was read at 570 nm.

[5] = test system: E18 rat primary cortical neurons; assay: Morphological analysis of cortical cultures (phase contrast); type: cell-based; conditions: glutamate 0.5 μM for 24 h; data not shown
Description: Changes in the morphology of neurons treated with different drugs in various groups were observed using a phase-contrast microscope (Nikon). Primary cultures were mainly observed for neurite outgrowth, a hallmark feature of healthy cells, and the density of healthy cells in different groups.

MAPK (ERK1/2) = assay: MAPK phosphorylation (p-ERK1/2 Western blot) in primary cortical neurons; type: cell-based, rat; conditions: VDH 100 nM, 30-minute treatment
Protocol: PROG and VDH were added to the primary cultures, as described above, for 30 minutes ([…], et al., (2002) Endocrinology 143: 205-212) and the cells were lysed using RIPA lysis buffer kit (sc-24948, Santa Cruz, Calif., USA). Protein was determined in cell lysates by bicinchoninic acid (BCA) protein assay (Cat. # 23225, Pierce, Rockford, Ill., USA). Cell lysates (40 μg protein each sample) were separated under reducing and denaturing conditions by 12.5% acrylamide Criterion gel (BioRad, Hercules, Calif., USA) at 200V for 1 hour and transferred to a polyvinylidene difluoride (PVDF) membrane at 100V for 30 minutes. The non-specific binding sites of the membrane were blocked with 5% non-fat dry milk in PBS-T (phosphate buffered saline containing 0.05% Tween-20). […] Membranes were then incubated in horseradish peroxidase (HRP)-conjugated secondary antibody (Goat anti-rabbit IgG; 074-1506, KPL, Gaithersburg, Md., USA). β-actin was probed as a loading control. Blots were developed using a chemiluminescent substrate (Pierce) for 5 minutes.

[6] = Phase 1 and Phase 2 human trials; cited from earlier work
[7] = test system: rat model of peripheral nerve injury; conditions: 100 IU/kg/day following nerve injury; cited from earlier work

In the case of `C=C1CC[C@H](O)C/C1=C/C=C1\CCC[C@]2(C)[C@@H]([C@H](C)CCCC(C)(C)O)CC[C@@H]12` [Compound 25OHD3, 25-hydroxyvitamin D3], the “fraction of total in serum bound by DBP” value [1] is given as “about 88%”.
With `CC(=O)[C@H]1CCC2C3CCC4=C[C@@H](OC(=O)[C@@H](N)C(C)C)CC[C@]4(C)C3CC[C@@]21C` (stereo partly drawn) [Compound 31, 3β-L-Valine-progesterone-HCl] the “edema compared to subjects treated with vehicle” value [2] was “decrease in edema” and the “mean % difference edema” value [2] was 2.2%.
For `CC(C)[C@H](N)C(=O)O[C@@H](C)[C@H]1CCC2C3CCC4=CC(=O)CC[C@]4(C)C3CC[C@@]21C` (stereo partly drawn) [Compound 57, 20-S-L-Valine-progesterone HCl salt], the “edema compared to subjects treated with vehicle” value [2] was “decrease in edema” and the “mean % difference edema” value [2] was 3.3%.
In the case of `CC(=O)[C@H]1CCC2C3CCC4=C/C(=N/OC(=O)[C@@H](N)Cc5c[nH]c6ccccc56)CC[C@]4(C)C3CC[C@@]21C` (stereo partly drawn) [Compound 79, O-L-Tryptophan-C3-oxime-progesterone HCl salt], the “edema compared to subjects treated with vehicle” value [2] is reported as “decrease in edema” and the “mean % difference edema” value [2] is reported as 1.9%.
In the case of `C=C1/C(=C\C=C2/CCC[C@]3(C)[C@@H]([C@H](C)CCCC(C)(C)O)CC[C@@H]23)C[C@@H](O)C[C@@H]1O` [VDH, 1,25-dihydroxyvitamin D3], the “spontaneous locomotor activity (total distance, resting, stereotypy, movement time)” value [3] is reported as “little or no benefit”, the “best (most effective) concentration alone against glutamate-induced neuronal death” value ([4]; LDH and MTT assays) is reported as 0.1 µM and the “shape of concentration response curve for neuroprotection against glutamate toxicity” value ([4]; VDH alone, or PROG 20 μM with VDH 1-100 nM) is reported as “U-shaped”. For the same compound, the “neuroprotection against glutamate toxicity compared to vehicle-only group” value ([4]; VDH higher concentrations (1-10 μM)) was “did not prevent neuronal loss”, the “neuroprotection against glutamate toxicity compared to vehicle-only group” value ([4]; VDH lower concentrations (0.001-0.5 μM), P<0.001) was “significantly protective” and the “morphology of neurons (neuronal processes, number of neurons) after glutamate” value [5] was “rescued neurons”. The “increase in p-ERK1/2 level compared to control group” value (MAPK (ERK1/2)) was 1.7 ×.
For `CC(=O)[C@H]1CC[C@H]2[C@@H]3CC[C@H]4C[C@](C)(O)CC[C@]4(C)[C@H]3CC[C@]12C` [ganaxolone, 3a-hydroxy-3b-methyl-5a-pregnan-20-one], the tolerability [6] is given as “well tolerated”.
For `C=C1CC[C@H](O)C/C1=C/C=C1\CCC[C@]2(C)[C@@H]([C@H](C)/C=C/[C@H](C)C(C)C)CC[C@@H]12` [vitamin D2, ergocalciferol], the “axogenesis and axon diameter” value [7] is listed as “significantly increased axogenesis and axon diameter”.
